Assay results reported in patent US8802597B2, “Herbicidal pyrimidines” (E I du Pont de Nemours and Company, priority 2003, dated 2014).

Key:
[1] = tested on: daisy fleabane (Erigeron spp.); experiment: Test L field study, Compound 1 and nicosulfuron; type: in vivo; conditions: Nicosulfuron 18 g a.i./ha, approximately 56 days after treatment
Description: (§1) This field study included treatments that consisted of Compound 1 and nicosulfuron alone and in combination on Canada thistle (Cirsium arvense) and daisy fleabane (Erigeron spp.). The plants ranged from 20 to 30 cm in height at the time of application during the month of May in the vicinity of Newark, Del. Compound 1 was formulated as a wettable powder containing 25% active ingredient by weight. Nicosulfuron was in the form of Accent® Herbicide, a water-dispersible granule formulation containing 75% active ingredient by weight. The formulations were dispersed in water in the sprayer tank before treatment. The treatments were made using a backpack sprayer calibrated to deliver 24 gallons per acre (224 L per hectare) to a 10 ft×30 ft (3 m×9 m) plot. Each treatment was replicated two times. The effects on the plants approximately 56 days after treatment were visually compared to untreated controls. Plant response ratings were calculated as the means of the two replicates, based on a scale of 0 to 100 where 0 is no effect and 100 is complete control. Colby's Equation was used to determine the herbicidal effects expected from the mixture.

[2] = tested on: Canada thistle (Cirsium arvense); experiment: Test L field study, Compound 1 and nicosulfuron; type: in vivo; conditions: Nicosulfuron 18 g a.i./ha, approximately 56 days after treatment
Description: as §1

COc1cc(OC)nc(NC(=O)NS(=O)(=O)c2ncccc2C(=O)N(C)C)n1 [Nicosulfuron, nicosulfuron, reference compound]
Obsd. observed effect (0 to 100 scale) [1]: 28
Obsd. observed effect (0 to 100 scale) [2]: 15
